row,melting point [°C],SMILES
1,132 to 133,"N=C(Nc1ccc(C2CCCC2)c(CN2CCC[C@H]2CO)c1)c1cccs1 [Example 31, N-(4-Cyclopentyl-3-{[(2S)-2-(Hydroxymethyl)Pyrrolidinyl]Methyl}Phenyl)-2-Thiophenecarboximidamide]"
2,126 to 127,"N=C(Nc1ccc(OC2CCCC2)c(CN2CCC[C@@H]2CO)c1)c1cccs1 [Example 21, N-(4-(Cyclopentyloxy)-3{[(2R)-2-(Hydroxymethyl)Pyrrolidinyl]Methyl}Phenyl)-2-Thiophenecarboximidamide]"
3,116 to 118,"CN(CCO)Cc1cc(NC(=N)c2cccs2)ccc1C1CCCC1 [Example 30, N-(4-Cyclopentyl-3-{[(2-Hydroxyethyl)(Methyl)Amino]Methyl}Phenyl)-2-Thiophenecarboximidamide]"

# Source: patent US20020137750A1, “Amidine derivatives which are inhibitors of nitric oxide synthase” (priority 1999, published 2002)
